This passage reports Serum concentration results from patent EP0114577A1, “New pharmaceutical composition” (MAGIS FARMACEUTICI S.p.A., priority 1983, dated 1984).

The data set can be described thus: Serum levels of radioactivity after administration of 14C-CDPC (liposomal suspension vs aqueous solution) to rats. The settings on record: rat, in vivo, 200 mg/kg. The source says:
Surprising results which are obtained orally administering carried-by-liposomes CDPC instead of utilizing hitherto known pharmaceutical compositions for oral administration are confirmed by data obtained by carrying out tests hereinbelow described. During the tests as pharmaceutical composition containing carried-by-liposomes CDPC, CDPC carried by means of a liposome having purified phosphatidylcholine from soybean as hydrophobic phase was utilized; said pharmaceutical composition will be called hereinafter Lip. CDPC for the sake of brevity. Moreover, during the hereinbelow describ ed tests, a marked CDPC was utilized having an atom of ^14C introduced into the methyl group of the cholinic side of the molecule. The radioactivity resulted to be about 0.1 µ Curie/mg pure CDPC.
The suspension of Lip. CDPC containing ^14C-CDPC, which was obtained as described in Example No. 1, and a ' reference aqueous solution of ^14C-CDPC were administered by gavage to rats of average weight of 200 g at the doses of 200 mg/Kg (referred to pure CDPC).
Blood abstractions were carried out at various intervals of time and, 24 hours after the start of test, the animals were sacrificed. Amounts of absorbed active ingredient were calculated from radioactivity measures on serum; said amounts, as reported in following Tables (1 - 2), were higher on the average in tests carried out employing Lip. CDPC in comparison with controls with pure CDPC in aqueous solution. It is apparent from the analysis of Tables that, in the described experimental conditions, there is a valuable absorption of CDPC after oral administration. The amount of said absorption and pertinent hematic concentrations are remarkably higher when Lip. CDPC, which is object of the present invention, is used: for example at the 6th hour the serum concentration of CDPC for Lip. CDPC was much higher than concentration found for CDPC administered in aqueous solution.

For `C[N+](C)(C)CCOP(=O)(O)OP(=O)([O-])OC[C@H]1O[C@@H](n2ccc(N)nc2=O)[C@H](O)[C@@H]1O` [CDPC, cytidine diphosphate choline ester], the Serum concentration reads like this: (0 min) 0 CPM x 10^-3; (60 min) 0.3 CPM x 10^-3; (120 min) 1 CPM x 10^-3; (300 min) 2.6 CPM x 10^-3; (600 min) 4 CPM x 10^-3; (900 min) 4 CPM x 10^-3.
